This is an account of results in PubChem BioAssay (NCI).

Assay in all cases: growth of human tumour cells (NCI), 48 h
Assay [1] deals with EKVX NSCLC.
Assay [2] concerns HS 578T breast.
Assay [3] deals with IGROV1 ovarian.
The subject of assay [4] is K-562 leukemia.
Assay [5] has as its system MALME-3M melanoma.
Assay [6] relates to NCI-H226 lung.
The subject of assay [7] is SW-620 colon.
The subject of assay [8] is T-47D breast.
Assay [9] deals with UO-31 renal.
The test system of assay [10] is HL-60(TB) leukemia.

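Compound exposure: 48 hours, 5 concentrations, 96-well plates. At the GI50, growth is halved. TGI marks complete inhibition of growth.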

As to `COC(=O)C(C(=O)C(=O)Nc1c(C)cccc1C(C)(C)C)c1nc2ccc(Cl)cc2[nH]c1=O` (centres undefined), the TGI in assay [1], in assay [2], in assay [3], in assay [4], in assay [5] and in assay [6] was over 100 µM each time. In addition, the TGI in [7], in assay [8] and in assay [9] was over 100 µM each time.

Regarding `O=S(=O)(NC1=NCCN1C(=S)SN1CCn2c1nsc2=S)c1ccc(Cl)cc1`, the GI50 was 13.2 µM in assay [1]; 14 µM in assay [2]; 10200 nM in assay [3]; 5.21 µM in [4]; 4.75 µM in assay [5]; 5.77 µM in [6]. Also, the GI50 in assay [7] was 4.42 µM; in [8], 5.38 µM; in assay [9] it was 2.28 µM. The TGI in assay [1] was 30.6 µM; in assay [2], 75.2 µM; in assay [3], 23.4 µM; in [4], over 100 µM; in assay [5] it was 18.1 µM; in assay [6] it was 20.7 µM. For the same compound, the values for the TGI in assay [7], in assay [8] and in assay [9] were 17.9 µM, 23.3 µM and 5.92 µM, respectively.

Turning to `CN(C)CCC(=O)Nc1ccc(-n2cc(-c3cccc(NC(=S)Nc4cccc(-c5cn(-c6ccc(NC(=O)CCN(C)C)cc6)nn5)c4)c3)nn2)cc1`, the GI50 was 37.2 µM in [1]; over 100 µM in assay [10]; 33.4 µM in assay [2]; 4.49 µM in assay [4]; 35.3 µM in [6]; 4.26 µM in assay [7]. Besides, the GI50 in [8] is 34.1 µM. Besides, the TGI in [1], in [10], in assay [2], in assay [4], in assay [6] and in [7] was over 100 µM in each case. Also, the TGI in assay [8] was over 100 µM.

Turning to `C=C1C(=O)O[C@@H]2/C=C(/C)[C@@H](OC(C)=O)C/C=C(\C)C(O)[C@@H](OC(=O)/C(C)=C\C)C12` (some centres undefined), the TGI was over 100 µM in assay [1]; 49.6 µM in [10]; over 100 µM in assay [2]; over 100 µM in assay [3]; 73.3 µM in assay [4]; over 100 µM in assay [6]. Besides, the results for the TGI in assay [7] and in assay [8] were 30.1 µM and 39.7 µM, respectively.

Consider `O=c1c(-c2ccc3c(c2)OCO3)coc2c3c(ccc12)OCO3`, for which the TGI is over 100 µM in [1]; over 100 µM in assay [10]; 59.4 µM in [2]; 59.7 µM in [3]; over 100 µM in [4]; over 100 µM in [7]. The TGI in assay [8] and in [9] was over 100 µM throughout.

As to `O=C(Nc1sc2c(c1C(=O)O)CCCC2)c1ccco1`, the GI50 in [1] is 36.3 µM; in assay [10] it was over 50 µM; in [2], over 50 µM; in assay [3], over 50000 nM; in assay [4] it was 23.9 µM; in [7] it was over 50 µM. The GI50 in assay [8] and in assay [9] was over 50 µM throughout. Also, the TGI in assay [1], in assay [10], in assay [2], in [3], in assay [4] and in [7] was over 50 µM each time. The TGI in assay [8] and in assay [9] was over 50 µM in each case.

Consider `CCOc1c(Br)cc(Br)cc1C=C(C#N)C#N`, for which the TGI is over 10 µM in [1]; 1.19 µM in assay [10]; over 10 µM in assay [2]; over 10 µM in assay [3]; over 10 µM in [4]; over 10 µM in assay [5]. For the same compound, the TGI in assay [6], in [7] and in assay [8] was over 10 µM throughout.

For `CC1=NN(c2cccc(Cl)c2)C(=O)/C1=C\c1cn(CC(O)CN2CCCCC2)c2ccccc12` (centres undefined), the GI50 in assay [1] was 11.1 µM; in assay [10], 2.89 µM; in assay [2] it was 6.14 µM; in [3] it was 2990 nM; in [4] it was 3.29 µM; in [6] it was 22.5 µM. Further, the GI50 in assay [7] is 1.73 µM; in assay [8], 15.8 µM; in assay [9], 1.73 µM. The TGI stood at 25.9 µM in [1]; 14.4 µM in assay [10]; 33.6 µM in assay [2]; 14.6 µM in assay [3]; 39.4 µM in assay [4]; 50.4 µM in assay [6]. The results for the TGI in assay [7], in assay [8] and in [9] were 3.53 µM, 36.2 µM and 7.12 µM, respectively.

As for `CCN(CC)C(=S)SSC(C)C`, the GI50 is 27.4 µM in assay [1]; 5.63 µM in [10]; 0.936 µM in assay [2]; 13.7 µM in assay [5]; 29.4 µM in assay [6]; 3.01 µM in assay [7]. Also, the figures for the GI50 in [8] and in assay [9] were 14.2 µM and 8.99 µM, respectively. The TGI in [1] is 70.4 µM; in assay [10], 29.8 µM; in assay [2], 28.3 µM; in [5], 30 µM; in assay [6], over 100 µM; in [7] it was 14 µM. Also, the TGI in assay [8] is 33.7 µM; in [9] it was 24.1 µM.

As to `OCc1ccc(N(Cc2ccc(F)cc2)Cc2ccc(F)cc2)cc1Cl`, the GI50 in assay [10] was 14.5 µM; in [2], 16.2 µM; in assay [3] it was 2080 nM; in [4] it was 4.93 µM; in [5], 18.4 µM; in assay [6], 0.466 µM. Also, the GI50 was 6.21 µM in [7], 3.31 µM in assay [8] and 3.49 µM in [9]. Moreover, the TGI in assay [10] is 35.4 µM; in assay [2] it was 45.5 µM; in assay [3], 8.07 µM; in [4], 23.1 µM; in assay [5] it was 35.4 µM; in assay [6], 2.03 µM. Also, the TGI is 20.7 µM in assay [7], 15.4 µM in assay [8] and 16.2 µM in assay [9].
